Calls of active or inactive are those of the source. The rule behind the calls is not given here.
Key:
in vivo [1] = details: Sprague-Dawley, rat, po, 15 mg/kg
Description: AUC (0 to infinity) in Sprague-Dawley rat at 15 mg/kg, po administered via gavage and measured after 0.5 to 168 hrs by LC-MS analysis

[2] = Induction of ROS generation in water assessed as decrease in ABDA absorption peak at 1 uM irradiated with 660 nm 0.2 to 1.5 W/cm2 light for 5 mins by ABDA probe based UV-vis absorption spectra analysis; type: functional
MCF7 [3] = test: Induction of ROS generation in human MCF7 cells assessed as cell percentage with elevated ROS at 1 uM incubated for 6 hrs followed by irradiation with 660 nm 0.4 W/cm2 light for 3 min by DCFH-DA probe based flow cytometric analysis (reference value: 0.2 %); type: functional; details: time 363 min, 6.05 h
[4] = Toxicity in female BALB/c mouse xenografted with human MCF7 cells assessed as change in body weight at 5 mg/kg, iv measured after 14 days; type: organism-based; details: in vivo, 336 h, time 14 day
[5] = Toxicity in female BALB/c mouse xenografted with human MCF7 cells assessed as effect on kidney histology at 5 mg/kg, iv measured after 14 days by H and E staining based analysis; type: organism-based; details: in vivo, 336 h, time 14 day
[6] = Toxicity in female BALB/c mouse xenografted with human MCF7 cells assessed as change in lymphocytes level at 5 mg/kg, iv measured after 14 days; type: organism-based; details: in vivo, 336 h, time 14 day
MCF7 [7] = test: cells; details: Homo sapiens, MCF7, light or radiation study
Description: Antiproliferative activity against human MCF7 cells assessed as inhibition of cell proliferation incubated for 48 hrs with 660 nm 0.4 W/cm2 light irradiation for 5 min at 6th hr of incubation time by MTT assay

[8] = Toxicity in female BALB/c mouse xenografted with human MCF7 cells assessed as change in AST level at 5 mg/kg, iv measured after 14 days; type: organism-based; details: in vivo, 336 h, time 14 day
MCF7 [9] = test: Induction of ROS generation in human MCF7 cells assessed as cell percentage with elevated ROS at 1 uM incubated for 6 hrs followed by irradiation with 660 nm 0.4 W/cm2 light for 1 min by DCFH-DA probe based flow cytometric analysis (reference value: 0.2 %); type: functional; details: time 361 min, 6.017 h
[10] = Toxicity in female BALB/c mouse xenografted with human MCF7 cells assessed as change in ALT level at 5 mg/kg, iv measured after 14 days with 660 nm 0.4 W/cm2 light irradiation for 5 mins at 4 hrs of incubation time; type: organism-based; details: in vivo, 336 h, time 14 day
[11] = Toxicity in female BALB/c mouse xenografted with human MCF7 cells assessed as effect on heart histology at 5 mg/kg, iv measured after 14 days by H and E staining based analysis; type: organism-based; details: in vivo, 336 h, time 14 day
[12] = Toxicity in female BALB/c mouse xenografted with human MCF7 cells assessed as change in AST level at 5 mg/kg, iv measured after 14 days with 660 nm 0.4 W/cm2 light irradiation for 5 mins at 4 hrs of incubation time; type: organism-based; details: in vivo, 336 h, time 14 day
MCF7 [13] = test: Photothermal effect in human MCF7 cells assessed as temperature of cell culture medium at 1 uM irradiated with 660 nm 0.4 W/cm2 light for 2 min (reference value: 26 degreeC); type: ADME, cell-based; details: mcf7, 2 min
[14] = Drug uptake in human MCF7 cell nucleus assessed as increase in red fluorescence at 1 uM incubated for 6 hrs by fluorescence imaging analysis; type: ADME, subcellular; details: mcf7, 6 h
MCF7 [15] = test: Photothermal effect in human MCF7 cells assessed as temperature of cell culture medium at 1 uM irradiated with 660 nm 0.4 W/cm2 light for 1 min (reference value: 26 degreeC); type: ADME, cell-based; details: mcf7, 1 min
MCF7 [16] = test: Antitumor activity against human MCF7 cells xenografted in female BALB/c mouse model assessed as tumor growth inhibition at 5 mg/kg, iv measured after 14 days with 660 nm 0.4 W/cm2 light irradiation for 5 mins at 4 hrs of incubation time relative to control; type: functional; details: MCF7, light or radiation study, 336 h, time 14 day, read-out: TGI
MCF7 [17] = test: cells; details: Homo sapiens, MCF7, 48 h
Description: Antiproliferative activity against human MCF7 cells assessed as inhibition of cell proliferation incubated for 48 hrs by MTT assay

[18] = Toxicity in female BALB/c mouse xenografted with human MCF7 cells assessed as change in red blood cell level at 5 mg/kg, iv measured after 14 days; type: organism-based; details: in vivo, 336 h, time 14 day
MCF7 [19] = test: cells; details: Homo sapiens, MCF7, light or radiation study; remark: listed apart in the source
Description: Antiproliferative activity against human MCF7 cells assessed as inhibition of cell proliferation incubated for 48 hrs with 660 nm 0.4 W/cm2 light irradiation for 1 min at 6th hr of incubation time by MTT assay

[20] = Toxicity in female BALB/c mouse xenografted with human MCF7 cells assessed as change in creatinine level at 5 mg/kg, iv measured after 14 days with 660 nm 0.4 W/cm2 light irradiation for 5 mins at 4 hrs of incubation time; type: organism-based; details: in vivo, 336 h, time 14 day
[21] = Induction of ROS generation in water at 1 uM irradiated with 660 nm 0.4 W/cm2 light up to 180 sec by DCFH probe based fluorescence spectra analysis; type: functional
[22] = Toxicity in female BALB/c mouse xenografted with human MCF7 cells assessed as change in platelet level at 5 mg/kg, iv measured after 14 days; type: organism-based; details: in vivo, 336 h, time 14 day
[23] = Induction of ROS generation in water assessed as decrease in ABDA absorption peak at 5 uM irradiated with 660 nm 0.4 W/cm2 light up to 5 mins by ABDA probe based UV-vis absorption spectra analysis; type: functional
MCF7 [24] = test: Antitumor activity against human MCF7 cells xenografted in female BALB/c mouse model assessed as damage in tumor tissue at 5 mg/kg, iv measured after 14 days with 660 nm 0.4 W/cm2 light irradiation for 5 mins at 4 hrs of incubation time by H and E staining based analysis; type: functional, organism-based; details: time 14.0 day
[25] = Toxicity in female BALB/c mouse xenografted with human MCF7 cells assessed as effect on spleen histology at 5 mg/kg, iv measured after 14 days by H and E staining based analysis; type: organism-based; details: in vivo, 336 h, time 14 day
[26] = Drug uptake in female BALB/c mouse kidney xenografted with human MCF7 cells at 5 mg/kg, iv measured after 4 hrs by fluorescence imaging analysis; type: ADME, organism-based; details: in vivo
MCF7 [27] = test: cells; details: Homo sapiens, MCF7, light or radiation study; remark: listed apart in the source
Description: Antiproliferative activity against human MCF7 cells assessed as inhibition of cell proliferation incubated for 48 hrs with 660 nm 0.4 W/cm2 light irradiation for 3 min at 6th hr of incubation time by MTT assay

MCF7 [28] = test: Antitumor activity against human MCF7 cells xenografted in female BALB/c mouse model assessed as reduction in tumor weight at 5 mg/kg, iv measured after 14 days with 660 nm 0.4 W/cm2 light irradiation for 5 mins at 4 hrs of incubation time; type: functional, organism-based; details: time 14.0 day
[29] = Toxicity in female BALB/c mouse xenografted with human MCF7 cells assessed as change in ALT level at 5 mg/kg, iv measured after 14 days; type: organism-based; details: in vivo, 336 h, time 14 day
MCF7 [30] = test: Induction of ROS generation in human MCF7 cells assessed as cell percentage with elevated ROS at 1 uM incubated for 6 hrs followed by irradiation with 660 nm 0.4 W/cm2 light for 2 min by DCFH-DA probe based flow cytometric analysis (reference value: 0.2 %); type: functional; details: time 362 min, 6.033 h
MCF7 [31] = test: Photothermal effect in human MCF7 cells assessed as temperature of cell culture medium at 1 uM irradiated with 660 nm 0.4 W/cm2 light for 3 min (reference value: 26 degreeC); type: ADME, cell-based; details: mcf7, 0.05 h
MCF7 [32] = test: Photothermal effect in human MCF7 cells assessed as temperature of cell culture medium at 1 uM irradiated with 660 nm 0.4 W/cm2 light for 5 min (reference value: 26 degreeC); type: ADME, cell-based; details: mcf7, 5 min
in vivo [33] = details: Sprague-Dawley, rat, po, 15 mg/kg; remark: listed apart in the source
Description: Tmax in Sprague-Dawley rat at 15 mg/kg, po administered via gavage and measured after 0.5 to 168 hrs by LC-MS analysis

- AUC(0-inf) (in vivo [1]): 357 ng·h/mL
- IC50 (MCF7 [7]): 130 nM
- T (MCF7 [13]): 28.4 °C
- Drug uptake [14]: Active
- T (MCF7 [15]): 27.3 °C
- IC50 (MCF7 [17]): 25100 nM
- IC50 (MCF7 [19]): 550 nM
- Drug uptake [26]: Active
- IC50 (MCF7 [27]): 200 nM
- T (MCF7 [31]): 29 °C
- T (MCF7 [32]): 32.5 °C
- Tmax (in vivo [33]): 6 h
Compound: CCN(CC)c1ccc2nc3c4ccccc4/c(=N\CCCCCCC(=O)NCCOc4ccc(C(=O)c5c(-c6ccc(O)cc6)sc6cc(O)ccc56)cc4)cc-3sc2c1
- Activity [2]: Active
- Activity (MCF7 [3]): 15%
- Activity [4]: Non-toxic
- Activity [5]: Non-toxic
- Activity [6]: Non-toxic
- Activity [8]: Non-toxic
- Activity (MCF7 [9]): 5.5%
- Activity [10]: Non-toxic
- Activity [11]: Non-toxic
- Activity [12]: Non-toxic
- inhibition in vivo at 5 mg/kg (MCF7 [16]): 118%
- Activity [18]: Non-toxic
- Activity [20]: Non-toxic
- Activity [21]: Active
- Activity [22]: Non-toxic
- Activity [23]: Active
- Activity (MCF7 [24]): Active
- Activity [25]: Non-toxic
- Activity (MCF7 [28]): Active; Significant Performance Than Faslodex Observed
- Activity [29]: Non-toxic
- Activity (MCF7 [30]): 6.5%

Source: ChEMBL document CHEMBL6134865, “Rational Design of Methylene Blue-Raloxifene Conjugates for Efficient Breast Tumor Elimination Triggered by ERα Degradation” (J Med Chem, 2025)
